Assay results published in patent US9937235B2, “Lipidated peptides as anti-obesity agents” (USTAV ORGANICKE CHEMIE A BIOCHEMIE AKADEMIE VED CR, V.V.I, priority 2012, dated 2018).
Where a SMILES comes first, the peptide text is derived from it. [ ]: non-standard residue; d: D form. The star is where a group is joined. 1Nal = N[C@@H](Cc1cccc2ccccc12)C(=O)O; Stearoyl = CCCCCCCCCCCCCCCCCC(=O)*; Palmitoyl = CCCCCCCCCCCCCCCC(=O)*; Myristoyl = CCCCCCCCCCCCCC(=O)*; Lauroyl = CCCCCCCCCCCC(=O)*; Decanoyl = CCCCCCCCCC(=O)*; Nle = CCCC[C@H](N)C(=O)O; Octanoyl = CCCCCCCC(=O)*

What follows are compounds tested on fasted C57BL/6 mice (assay: Food intake in fasted mice after SC administration). Conditions: fasted C57BL/6 mice, 5 mg/kg SC, 45 min.
Format: in vivo, mouse
Experimental: Male C57BL/6 mice (An Lab, Prague 4) were bred in the accredited animal facility in the Institute of Organic Chemistry and Biochemistry, Czech Academy of Sciences, Prague, at the Institute of Molecular Genetics, Prague 4, at the temperature of 22±2° C. with access to food and water ad libitum. The day/night cycle was 12/12 hours (light turned on at 6:00 am). Animals were treated according to the Animal Protection Act (Act No. 246/1992). The males were fed standard chow diet St-1 (Mlýn Kocanda, Praha, Czech Republic) which contained 66% saccharides, 25% proteins and 9% lipids with a caloric value of 3.4 kcal/g.
The food was withdrawn 17 hours prior to injection of lipidated peptide and free access to water was maintained. The administration of saline, PrRP or lipidated analogs was performed either by SC injection at doses of 1-10 mg/kg (volume 0.2 ml/mouse), or by ICV using infusion pump (cannulae were inserted into the third brain ventricle 4 days before the experiment following the procedure of Maixnerová et al. (Maixnerová et al., 2011)). The single dose of peptide was 4 nmol/mouse (5 μl/mouse).
Fifteen minutes after the lipidated peptide administration, the mice were given pre-weighed food. The food was then weighed every 30 minutes for 5-10 hours. The administration of every dose was performed at least twice and one group of mice consisted of at least 6 mice. The results were presented as % of food intake as compared with the control group injected with saline.
Statistical evaluation was performed using program Graph-Pad Prism Software (San Diego, Calif., USA), and the one-way ANOVA with a subsequent Dunnettovým post-hoc test. The difference in food intake between mice injected with saline and mice injected with the examined peptide were considered statistically significant at P<0.05.

Compound | Food intake in mice (5 mg/kg SC) % saline-treated group (45 min) [%]
CCCCCCCC(=O)N[C@@H](CO)C(=O)N[C@@H](CCCNC(=N)N)C(=O)N[C@@H](C)C(=O)N[C@@H](Cc1c[nH]cn1)C(=O)N[C@@H](CCC(N)=O)C(=O)N[C@@H](Cc1c[nH]cn1)C(=O)N[C@@H](CO)C(=O)N[C@@H](CCCC)C(=O)N[C@@H](CCC(=O)O)C(=O)N[C@H](C(=O)N[C@@H](CCCNC(=N)N)C(=O)N[C@H](C(=O)N1CCC[C@H]1C(=O)N[C@@H](CC(=O)O)C(=O)N[C@H](C(=O)N[C@@H](CC(N)=O)C(=O)N1CCC[C@H]1C(=O)N[C@@H](C)C(=O)N[C@@H](Cc1c[nH]c2ccccc12)C(=O)N[C@@H](Cc1ccc(O)cc1)C(=O)N[C@H](C(=O)NCC(=O)N[C@@H](CCCNC(=N)N)C(=O)NCC(=O)N[C@H](C(=O)N[C@@H](CCCNC(=N)N)C(=O)N1CCC[C@H]1C(=O)N[C@H](C(=O)NCC(=O)N[C@@H](CCCNC(=N)N)C(=O)N[C@@H](Cc1ccccc1)C(N)=O)C(C)C)[C@@H](C)CC)[C@@H](C)O)[C@@H](C)CC)[C@@H](C)O)[C@@H](C)O [Analog 15] (Octanoyl-SRAHQHS[Nle]ETRTPDINPAWYTGRGIRPVGRF-NH2) | 94
CCCCCCCCCC(=O)N[C@@H](CO)C(=O)N[C@@H](CCCNC(=N)N)C(=O)N[C@@H](C)C(=O)N[C@@H](Cc1c[nH]cn1)C(=O)N[C@@H](CCC(N)=O)C(=O)N[C@@H](Cc1c[nH]cn1)C(=O)N[C@@H](CO)C(=O)N[C@@H](CCCC)C(=O)N[C@@H](CCC(=O)O)C(=O)N[C@H](C(=O)N[C@@H](CCCNC(=N)N)C(=O)N[C@H](C(=O)N1CCC[C@H]1C(=O)N[C@@H](CC(=O)O)C(=O)N[C@H](C(=O)N[C@@H](CC(N)=O)C(=O)N1CCC[C@H]1C(=O)N[C@@H](C)C(=O)N[C@@H](Cc1c[nH]c2ccccc12)C(=O)N[C@@H](Cc1ccc(O)cc1)C(=O)N[C@H](C(=O)NCC(=O)N[C@@H](CCCNC(=N)N)C(=O)NCC(=O)N[C@H](C(=O)N[C@@H](CCCNC(=N)N)C(=O)N1CCC[C@H]1C(=O)N[C@H](C(=O)NCC(=O)N[C@@H](CCCNC(=N)N)C(=O)N[C@@H](Cc1ccccc1)C(N)=O)C(C)C)[C@@H](C)CC)[C@@H](C)O)[C@@H](C)CC)[C@@H](C)O)[C@@H](C)O [Analog 16] (Decanoyl-SRAHQHS[Nle]ETRTPDINPAWYTGRGIRPVGRF-NH2) | 57
CCCCCCCCCCCC(=O)N[C@@H](CO)C(=O)N[C@@H](CCCNC(=N)N)C(=O)N[C@@H](C)C(=O)N[C@@H](Cc1c[nH]cn1)C(=O)N[C@@H](CCC(N)=O)C(=O)N[C@@H](Cc1c[nH]cn1)C(=O)N[C@@H](CO)C(=O)N[C@@H](CCCC)C(=O)N[C@@H](CCC(=O)O)C(=O)N[C@H](C(=O)N[C@@H](CCCNC(=N)N)C(=O)N[C@H](C(=O)N1CCC[C@H]1C(=O)N[C@@H](CC(=O)O)C(=O)N[C@H](C(=O)N[C@@H](CC(N)=O)C(=O)N1CCC[C@H]1C(=O)N[C@@H](C)C(=O)N[C@@H](Cc1c[nH]c2ccccc12)C(=O)N[C@@H](Cc1ccc(O)cc1)C(=O)N[C@H](C(=O)NCC(=O)N[C@@H](CCCNC(=N)N)C(=O)NCC(=O)N[C@H](C(=O)N[C@@H](CCCNC(=N)N)C(=O)N1CCC[C@H]1C(=O)N[C@H](C(=O)NCC(=O)N[C@@H](CCCNC(=N)N)C(=O)N[C@@H](Cc1ccccc1)C(N)=O)C(C)C)[C@@H](C)CC)[C@@H](C)O)[C@@H](C)CC)[C@@H](C)O)[C@@H](C)O [Analog 17] (Lauroyl-SRAHQHS[Nle]ETRTPDINPAWYTGRGIRPVGRF-NH2) | 22
CCCCCCCCCCCCCC(=O)N[C@@H](CO)C(=O)N[C@@H](CCCNC(=N)N)C(=O)N[C@@H](C)C(=O)N[C@@H](Cc1c[nH]cn1)C(=O)N[C@@H](CCC(N)=O)C(=O)N[C@@H](Cc1c[nH]cn1)C(=O)N[C@@H](CO)C(=O)N[C@@H](CCCC)C(=O)N[C@@H](CCC(=O)O)C(=O)N[C@H](C(=O)N[C@@H](CCCNC(=N)N)C(=O)N[C@H](C(=O)N1CCC[C@H]1C(=O)N[C@@H](CC(=O)O)C(=O)N[C@H](C(=O)N[C@@H](CC(N)=O)C(=O)N1CCC[C@H]1C(=O)N[C@@H](C)C(=O)N[C@@H](Cc1c[nH]c2ccccc12)C(=O)N[C@@H](Cc1ccc(O)cc1)C(=O)N[C@H](C(=O)NCC(=O)N[C@@H](CCCNC(=N)N)C(=O)NCC(=O)N[C@H](C(=O)N[C@@H](CCCNC(=N)N)C(=O)N1CCC[C@H]1C(=O)N[C@H](C(=O)NCC(=O)N[C@@H](CCCNC(=N)N)C(=O)N[C@@H](Cc1ccccc1)C(N)=O)C(C)C)[C@@H](C)CC)[C@@H](C)O)[C@@H](C)CC)[C@@H](C)O)[C@@H](C)O [Analog 18] (Myristoyl-SRAHQHS[Nle]ETRTPDINPAWYTGRGIRPVGRF-NH2) | 3
CCCCCCCCCCCCCCCCCC(=O)N[C@@H](CO)C(=O)N[C@@H](CCCNC(=N)N)C(=O)N[C@@H](C)C(=O)N[C@@H](Cc1c[nH]cn1)C(=O)N[C@@H](CCC(N)=O)C(=O)N[C@@H](Cc1c[nH]cn1)C(=O)N[C@@H](CO)C(=O)N[C@@H](CCCC)C(=O)N[C@@H](CCC(=O)O)C(=O)N[C@H](C(=O)N[C@@H](CCCNC(=N)N)C(=O)N[C@H](C(=O)N1CCC[C@H]1C(=O)N[C@@H](CC(=O)O)C(=O)N[C@H](C(=O)N[C@@H](CC(N)=O)C(=O)N1CCC[C@H]1C(=O)N[C@@H](C)C(=O)N[C@@H](Cc1c[nH]c2ccccc12)C(=O)N[C@@H](Cc1ccc(O)cc1)C(=O)N[C@H](C(=O)NCC(=O)N[C@@H](CCCNC(=N)N)C(=O)NCC(=O)N[C@H](C(=O)N[C@@H](CCCNC(=N)N)C(=O)N1CCC[C@H]1C(=O)N[C@H](C(=O)NCC(=O)N[C@@H](CCCNC(=N)N)C(=O)N[C@@H](Cc1ccccc1)C(N)=O)C(C)C)[C@@H](C)CC)[C@@H](C)O)[C@@H](C)CC)[C@@H](C)O)[C@@H](C)O [Analog 20] (Stearoyl-SRAHQHS[Nle]ETRTPDINPAWYTGRGIRPVGRF-NH2) | 3.5
CCCCCCCCCCCCCCCC(=O)N[C@@H](CO)C(=O)N[C@@H](CCCNC(=N)N)C(=O)N[C@@H](C)C(=O)N[C@@H](Cc1c[nH]cn1)C(=O)N[C@@H](CCC(N)=O)C(=O)N[C@@H](Cc1c[nH]cn1)C(=O)N[C@@H](CO)C(=O)N[C@@H](CCCC)C(=O)N[C@@H](CCC(=O)O)C(=O)N[C@H](C(=O)N[C@@H](CCCNC(=N)N)C(=O)N[C@H](C(=O)N1CCC[C@H]1C(=O)N[C@@H](CC(=O)O)C(=O)N[C@H](C(=O)N[C@@H](CC(N)=O)C(=O)N1CCC[C@H]1C(=O)N[C@@H](C)C(=O)N[C@@H](Cc1c[nH]c2ccccc12)C(=O)N[C@@H](Cc1ccc(O)cc1)C(=O)N[C@H](C(=O)NCC(=O)N[C@@H](CCCNC(=N)N)C(=O)NCC(=O)N[C@H](C(=O)N[C@@H](CCCNC(=N)N)C(=O)N1CCC[C@H]1C(=O)N[C@H](C(=O)NCC(=O)N[C@@H](CCCNC(=N)N)C(=O)N[C@@H](Cc1cccc2ccccc12)C(N)=O)C(C)C)[C@@H](C)CC)[C@@H](C)O)[C@@H](C)CC)[C@@H](C)O)[C@@H](C)O [Analog 23] (Palmitoyl-SRAHQHS[Nle]ETRTPDINPAWYTGRGIRPVGR[1Nal]-NH2) | 13
